Measured values as given in publication PMC9818267, “Brain Natriuretic Peptide Protects Cardiomyocytes from Apoptosis and Stimulates Their Cell Cycle Re-Entry in Mouse Infarcted Hearts” (Cells, 2022).
Like-named read-outs stand apart in the source and are kept apart here. No end group written: not given here.

Experiments:
[1] = rats with myocardial damage; cited from earlier work
cardiomyocytes (CMs) [2] = settings: adult CMs from unmanipulated BNP-treated hearts vs saline, p = 0.008; cited from earlier work
Text: The percentages of mononucleated CMs increased in all the BNP-treated hearts (Figure 2B,E,G).

p38 = assay: Western blot pp38/p38 in adult CMs stimulated in vitro; format: cell-based, mouse; settings: adult CMs stimulated with BNP for 2–3 h in vitro, vs untreated
Method: (§1) CM isolations were performed thanks to the Langendorff-Free method. […] Thereafter, the heart was removed from the chest and the left ventricle was perfused with enzymatic solution containing collagenase II (120 U/mL), collagenase IV (120 U/mL) (Worthington, Biochemical Corporation, USA) and protease XIV (0.05 mg/mL or 0.175 U/mL) (Sigma-Aldrich, Merck, Darmstadt, Germany). In each experiment, a full digestion of the heart was obtained. After digestion, cardiac cells were dissociated by gentle pipetting, filtered and collected after 25 min sedimentation. For infarcted hearts, the tissue was separated into the three zones (ZI, BZ and RZ). The three different areas were weighted before gentle pipetting.
Total proteins were extracted from CMs isolated from adult infarcted and unmanipulated neonatal and adult hearts. Proteins were transferred to nitrocellulose membranes (Biorad) before incubation with primary antibodies overnight at 4 °C. Secondary antibodies were added 1 h at RT in the dark (Supplementary File S1). The signal was detected and quantified with the Odyssey infrared imaging system (LI-COR. Biosciences, Bad Homburg, Germany). All results were normalized to the tubulin protein level or to the total protein level thanks to stainings with the Revert 700 Total protein Stain (LI-COR).

[3] = cited from earlier work
Text: In previous work, we highlighted the cardioprotective effect of BNP intraperitoneal (ip) injections in infarcted mice. Contractility increased twofold and heart remodeling (the percentage of changes of the left ventricle volume) decreased (−79%, p = 0.04) 4 weeks after MI in BNP-treated mice when compared to saline-injected mice. At the cellular level, BNP injections decreased the infarct size by 20% and reduced fibrosis. At least a part of the BNP positive effect in infarcted mice is due to increased cardiac angiogenesis and vasculogenesis. Indeed, BNP stimula ... || The concentrations of BNP used in this study were already shown to stimulate the mobilization, proliferation and differentiation of the endothelial precursor cells. In our first work, we verified that these concentrations have no impact on blood pressure, heart rate and cardiac output. In contrast, these BNP concentrations decrease the heart remodeling, the left ventricular volume and left ventricular end diastolic diameter and increase by 2-fold the contractility, 4 weeks after MI [11]. Furthermore, at the cellular level, these BNP concentrations increase the number of ca ...

Troponin T = Troponin T plasma concentration (ECLIA) after MI; format: in vivo, mouse; settings: BNP vs saline
Method: Troponin T plasma levels were quantified using an electrochemiluminescence immunoassay analyzer “ECLIA” (cobas e 801 immunoanalysis system, Roche Diagnostics, Rotkreuz, Switzerland) in the hematology laboratory of the Centre Hospitalier Universitaire Vaudois (CHUV). Blood was collected 24 h and 3 days after infarction induction in heparin microvette (Sarstedt, Nümbrecht, Germany).

Nkx2.5+ myocytes = settings: cited from earlier work
cardiomyocytes (CMs) [4] = assay: Cardiomyocyte isolation (Langendorff-Free method) and counting; format: in vivo, mouse
Method: BNP was injected into infarcted adults, and unmanipulated neonatal and adult mice. Directly after surgery, NaCl (saline) or BNP (1.3 µg/20 g in 20 µL) was injected into the left ventricle cavity. At 24 h after MI, mice were intraperitoneal (ip) injected with BNP (2 µg/20 g mice) or saline every 2 days. C57BL/6 mice were sacrificed 1- and 14 days post-MI and Myh6 MerCreMer mice were sacrificed 14 days post-MI (Figure 1A). Neonatal C57BL/6 mice (3 days after birth) were injected ip with NaCl or BNP every two days (1 µg/2 g; Bachem; synthetic mouse BNP (1–45) peptide (catalog number H-7558)). Mice were sacrificed 11 days after birth (Figure 1B). Eight week old C57 BL/6 mice or Myh6 MerCreMer unmanipulated mice were injected ip with BNP (2 µg/20 g mice) or NaCl every two days (Figure 1C). Two weeks after the first injection, mice were sacrificed. To assess for the implication of the ERK signaling pathway in the BNP effect on CMs, PD0325901 (60 µg/20 g mice in 80 µL) was administered by gavage in adult unmanipulated mice 1 h before BNP injection (2 µg/20 g mice).
as §1
Total CM cell numbers were counted before sedimentation by two different people and in blinded experiments. The CMs were easily identified based on their size and on Troponin I expression (for all experiments with flow cytometry analysis). Round and rod-shaped CMs were counted and their numbers related to the heart, to the mg of tissue and also to the control hearts (saline-injected hearts) always performed in parallel the same day than BNP-treated hearts (i.e., with the same digestion buffer).

Brain Natriuretic Peptide (SQGSTLRVQQRPQNSKVTHISSCFGHKIDRIGSVSRLGCNALKLL; not fully specified; ends and bridges not checked; UniProt P40753 77-121, looked up) [BNP, synthetic mouse BNP (1–45) peptide (Bachem, catalog number H-7558)]
half-life [1]: about 1.2 min | CM cross-sectional area change (cardiomyocytes (CMs) [2]): −6% | pp38/p38 ratio (p38): did not change | heart remodeling (percentage of changes of the left ventricle volume) change ([3]; 4 weeks after MI, BNP vs saline, p = 0.04): −79% | contractility increase ([3]; 4 weeks after MI, BNP vs saline): twofold | impact on blood pressure, heart rate and cardiac output ([3]; BNP concentrations used in this study): no impact | decrease of infarct size ([3]; BNP injections in infarcted mice): 20% | Troponin T plasma concentration decrease (Troponin T; 1 day after MI): 2.6 × | Troponin T plasma concentration decrease (Troponin T; 3 days after MI): 2.1 × | increase in Nkx2.5+ myocytes (Nkx2.5+ myocytes; adult BNP-treated hearts): 68% | increase in Nkx2.5+ myocytes (Nkx2.5+ myocytes; neonatal BNP-treated hearts): 22.5% | CM number per mg tissue (cardiomyocytes (CMs) [4]; BZ and RZ of infarcted hearts, BNP vs saline): No change | CM cell number per heart (cardiomyocytes (CMs) [4]; BZ or RZ of infarcted hearts, BNP vs saline): No increase | increase of number of CMs per mg tissue (cardiomyocytes (CMs) [4]; ZI of infarcted hearts, BNP vs saline): 2 fold | increase of number of CMs related to saline-injected littermates (cardiomyocytes (CMs) [4]; ZI of infarcted hearts, same-day isolation with same enzymatic cocktail): 2.2 fold | increase of total number of CMs per heart (cardiomyocytes (CMs) [4]; infarct area (ZI) of infarcted adult hearts, BNP 2 µg/20 g ip every 2 days, vs saline): 81% | CM cell number in NPR-A deficient hearts (cardiomyocytes (CMs) [4]; unmanipulated adult NPR-A −/− mice, saline n = 4, BNP n = 3): did not change | increase of number of CMs related to saline-injected littermates (cardiomyocytes (CMs) [4]; unmanipulated adult hearts): 28.5% | increase of total number of CMs per heart (cardiomyocytes (CMs) [4]; unmanipulated adult hearts, BNP 2 µg/20 g ip every 2 days for 2 weeks, vs saline): 19% | increase of number of CMs per mg tissue (cardiomyocytes (CMs) [4]; unmanipulated adult hearts, BNP vs saline): 26% | number of CMs in the presence of ERK inhibitor (cardiomyocytes (CMs) [4]; unmanipulated adult mice, PD0325901 (60 µg/20 g) 1 h before each BNP injection, 2 weeks, n = 5 per group): did not increase | increase of number of CMs related to saline-injected littermates (cardiomyocytes (CMs) [4]; unmanipulated neonatal hearts): 23% | increase of total number of CMs per heart (cardiomyocytes (CMs) [4]; unmanipulated neonatal hearts, BNP 1 µg/2 g ip every 2 days from day 3, sacrifice day 11, vs saline): 18% | increase of number of CMs per mg tissue (cardiomyocytes (CMs) [4]; unmanipulated neonatal hearts, BNP vs saline): 44%
